From US20240208905A1, “ABIRATERONE DERIVATIVE, PREPARATION AND APPLICATION THEREOF” (GUANGDONG ZHONGKE MEDICINE R&D LTD., priority 2021, published 2024)
Marks after values point to notes of the source that are not given here.

Columns and labels:
[1] = system: experimental rabbit ear acne; assay: Pharmacodynamics evaluation of acne: coal tar rabbit ear acne model, HE pathology; format: in vivo, Japanese big-ear white rabbits; conditions: 0.01% ointment, 1 g per animal, once a day, two weeks, 10 rabbits per group; for Degree of keratinization: number of rabbits graded + / Degree of keratinization: number of rabbits graded ++ / Degree of keratinization: number of rabbits graded +++ / Degree of keratinization: number of rabbits graded −: hair follicle keratinization
Description: There are 140 male healthy Japanese big-ear white rabbits, weighing 2.0-2.5 kg. After one week of adaptive rearing, 10 rabbits were randomly selected according to their body weights as the normal control group, and the remaining 130 rabbits were coated with coal tar once a day in the area of 2×2 cm2 at 2 cm outside the opening of ear canal, with a thickness of about 0.5 mm (Before coating, the coal tar was heated to melt in a water bath, and the last coal tar shell was removed before each application; the rabbits in normal control group were coated with olive oil by the same method as before). After 3 weeks for modeling, according to the degree of skin lesion, 130 rabbits were randomly divided into 13 groups which is model control group, Example 1 compound (1 group), Example 2 compound (2 groups), Example 3 compound (3 groups), Example 4 (4 groups), Example 5 (5 groups), Example 6 (6 groups), Example 7 (7 groups), Example 8 (8 groups), Example 9 (9 groups), Example 10 (10 groups), Example 11 (11 groups), Example 12 (12 groups), Example 13 (13 groups), and each group had 10 rabbits. After grouping, each dose group were continued to be coated coal tar in the morning, and after the coal tar was removed in the afternoon, apply the test drug or control drug (both 0.01%/10 g ointment, apply 1 g ointment per animal) on the lesion, once a day, for two consecutive weeks (the model control group and the normal control group were coated with the same amount of matrix). 24 hours after the last administration, the animals were sacrificed by air embolism, and the skin (full thickness) of the ear where the administration was administered was taken, fixed with 4% paraformaldehyde solution, stained with HE, and routinely observed for pathology.1.

[2] = system: human prostate cancer cell VCaP nude mouse transplanted tumor model; assay: Prostate tumor pharmacodynamics experiment: VCaP nude mouse transplanted tumor model; format: in vivo, BALB/c nude mice; conditions: 0.5 mmol·kg−1 i.g. QD; for inhibition in vivo at 500 µmol/kg: Mus musculus, VCaP, po, 600 h, read-out: Growth Inhibition rate (GI); for Tumor volume, day 25: * P<0.05, ** P<0.01 vs solvent control
Description: Male BALB/c nude mice (number: 90; age: 6-7 weeks) purchased from Beijing Vital River Laboratory Animal Technology Co., Ltd., were raised in the SPF animal room of Suzhou Shengsu New Drug Development Co., Ltd. at a temperature of 20˜25° C. and a relative humidity 40%˜70%, and bright and dark illumination for 12 hours respectively; these mice were allowed to drink and eat freely. After normal feeding for about 6 days, mice with good physical signs can be selected for this experiment after veterinary inspection. Before grouping, animals were identified at their base of tail using marking pens. After grouping, each animal was identified by ear clipping.
Human prostate cancer cells VCaP were obtained from the Shanghai Cell Bank of the Chinese Academy of Sciences (CAS, cryopreserved in liquid nitrogen in our laboratory).
Under a culture condition of 5% CO2 and 37° C., VCaP cells were routinely cultured in DMEM medium containing 10% fetal bovine serum. Digested with 0.25% trypsin and passaged, VCaP cells were passaged 2-3 times per week based on cell growth, with a passage ratio of 1:3 to 1:5.
The VCaP cells in logarithmic growth phase were collected, counted, and resuspended in 50% DMEM basal medium and 50% Matrigel Matrix, and the cell concentration was adjust to 5×10^7 cells/mL; the cells was placed in an ice box; Cell suspension was aspirated with a 1 ml syringe, and injected subcutaneously to the anterior right armpit of nude mice. Each animal was inoculated with 200 μL (1×10^7 cells/mouse), and a VCaP transplant tumor model in nude mice was established. Regularly observe the status of mice, measure the diameter of the tumor with an electronic vernier caliper, input the data into Excel spreadsheets, calculate the tumor volume, and monitor its growth. When the tumor volume reached 100-300 mm3, 60 mice with good health and similar tumor volume were selected, and divided into 10 groups (n=6) based on the tumor volume using random block method, while ensuring that the average body weight of each group remained consistent as much as possible. The day of grouping was taken as the first day of the experiment (D1). The tumor diameters were measured twice a week after the initiation of the experiment, the tumor volumes were calculated, and the body weights of the animals were weighed and recorded at the same time.
Preparation of DMSO&PEG400&PG (v:v:v, 10:60:30): appropriate volumes of DMSO, PEG400 and PG were drawed respectively, and mixed well. The ratio of DMSO, PEG400 and PG in the mixture is 10:60:30 (v:v:v), and this mixture is used as a blank solvent and stored at room temperature.
Appropriate amount of the test compound was weighed and added into a glass bottle, appropriate volume of solvent DMSO was added, be treated with vortex ultrasonication, then appropriate volumes of PEG400 and PG were added in turn, be vortex mixed to obtain a dosing formulation with a final concentration of 0.05M. The dosing formulation was stored in refrigerator at 2-8° C. after subpackaging, and was stirred evenly with vortex before each administration. The dosing formulation was prepared every 7 days, and was subpackaged and stored in refrigerator at 4° C.
Appropriate amount of ZONK1901-10 was weighed and added into a glass bottle, appropriate volume of corn oil, was added, be treated with vortex ultrasonication evenly, a dosing formulation with a final concentration of 19.58 mg·mL-1 (0.05 M) was obtained.

[3] = Pharmacokinetic experiment after intragastric administration in mice (LC-MS/MS of ZONK1901-1 and ZONK1901-2)
Description: To study the pharmacokinetic properties after intragastric administration in mice.
Each mouse was collected at 2-3 discrete points in time.
An LC-MS/MS analysis method for determining the concentrations of ZONK 1901-1 and ZONK1901-2 in mouse whole blood was established. At the same time, the obtained plasma concentration data was calculated by using the pharmacokinetic processing software Pharsight Phoenix WinNonlin8.0 non-compartmental model to calculate relevant pharmacokinetic parameters.

[4] = system: tumor model mice inoculated with Vcap (human prostate cancer cells); conditions: intraperitoneal injections, cited from earlier work
[5] = metabolite ZONK1901-1 (M1) in mouse blood after intragastric administration of the group's compound
[6] = metabolite ZONK1901-2 (M2) in mouse blood after intragastric administration of the group's compound

Cc1ccccc1C(=O)ON=C1C=C2CC[C@H]3[C@H](CC[C@]4(C)C(c5cccnc5)=CC[C@@H]34)[C@@]2(C)CC1 [Example 5, (8S,9S,10R,13S,14S)-10,13-Dimethyl-17-(pyridin-3-yl) -6,7,8,9,10,11,12,13,14,15-decahydro-1H-cyclopenta[a]phenanthrenyl-3(2H)-one O-(2-methylbenzoyl)oxime]
degree of inflammatory cell infiltration: number of rabbits graded + [1]: 6 | degree of inflammatory cell infiltration: number of rabbits graded ++ [1]: 3 | degree of inflammatory cell infiltration: number of rabbits graded +++ [1]: 1 | degree of inflammatory cell infiltration: number of rabbits graded − [1]: 0 | Degree of keratinization: number of rabbits graded + [1]: 6 | Degree of keratinization: number of rabbits graded ++ [1]: 4 | Degree of keratinization: number of rabbits graded +++ [1]: 0 | Degree of keratinization: number of rabbits graded − [1]: 0 | inhibition in vivo at 500 µmol/kg ([2]; day 25, vs solvent control): 85.2% | Tumor volume, day 25 ([2]; day 25, n=6): 410 ± 44 ** mm3

CN(C)CCNC(=O)ON=C1C=C2CC[C@H]3[C@H](CC[C@]4(C)C(c5cccnc5)=CC[C@@H]34)[C@@]2(C)CC1 [Example 1, (8S,9S,10R,13S,14S)-10, 13-Dimethyl-17-(pyridin-3-yl) -6,7,8,9,10,11,12,13,14,15-decahydro-1H-cyclopenteno[a]phenanthrene-3(2H)-one O-((2-(dimethylamino)ethyl)carbamoyl)oxime]
degree of inflammatory cell infiltration: number of rabbits graded + [1]: 5 | degree of inflammatory cell infiltration: number of rabbits graded ++ [1]: 3 | degree of inflammatory cell infiltration: number of rabbits graded +++ [1]: 2 | degree of inflammatory cell infiltration: number of rabbits graded − [1]: 0 | Degree of keratinization: number of rabbits graded + [1]: 6 | Degree of keratinization: number of rabbits graded ++ [1]: 4 | Degree of keratinization: number of rabbits graded +++ [1]: 0 | Degree of keratinization: number of rabbits graded − [1]: 0 | inhibition in vivo at 500 µmol/kg ([2]; day 25, vs solvent control): 82.2% | Tumor volume, day 25 ([2]; day 25, n=6): 384 ± 32 ** mm3

CC(=O)O[C@H]1CC[C@@]2(C)C(=CC[C@@H]3[C@@H]2CC[C@]2(C)C(c4cccnc4)=CC[C@@H]32)C1 [ZONK1901-10, abiraterone acetate, reference compound]
M2 (ZONK1901-2) in the metabolites ([3]; intragastric administration): not detected | Autopsy finding on absorption of the drug [4]: some of the drugs were not absorbed | Adverse findings in tumor model mice ([4]; some mice): developed abdominal distension and died | inhibition in vivo at 500 µmol/kg ([2]; day 25, vs solvent control): 44.1% | Tumor volume, day 25 ([2]; day 25, n=6): 765 ± 46 * mm3

C[C@]12CCC(=NOC(=O)N3CCC(N4CCCCC4)CC3)C=C1CC[C@H]1[C@@H]2CC[C@]2(C)C(c3cccnc3)=CC[C@@H]12 [Example 4, (8S,9S,10R,13S,14S)-10,13-Dimethyl-17-(pyridin-3-yl) -6,7,8,9,10,11,12,13,14,15-decahydro-1H-cyclopentene[a]phenanthrenyl-3(2H)-one O-([1,4′-bipiperidine]-1′-carbonyl)oxime]
degree of inflammatory cell infiltration: number of rabbits graded + [1]: 5 | degree of inflammatory cell infiltration: number of rabbits graded ++ [1]: 3 | degree of inflammatory cell infiltration: number of rabbits graded +++ [1]: 2 | degree of inflammatory cell infiltration: number of rabbits graded − [1]: 0 | Degree of keratinization: number of rabbits graded + [1]: 7 | Degree of keratinization: number of rabbits graded ++ [1]: 3 | Degree of keratinization: number of rabbits graded +++ [1]: 0 | Degree of keratinization: number of rabbits graded − [1]: 1 | inhibition in vivo at 500 µmol/kg ([2]; day 25, vs solvent control): 84.2% | Tumor volume, day 25 ([2]; day 25, n=6): 377 ± 37 ** mm3

CN(C)C(=O)ON=C1C=C2CC[C@H]3[C@H](CC[C@]4(C)C(c5cccnc5)=CC[C@@H]34)[C@@]2(C)CC1 [Example 2, (8S,9S,10R,13S,14S)-10,13-Dimethyl-17-(pyridin-3-yl) 6,7,8,9,10,11,12,13,14,15-decahydro-1H-cyclopenta[a]phenanthrene-3(2H)-one O-dimethylcarbamoyl oxime]
degree of inflammatory cell infiltration: number of rabbits graded + [1]: 4 | degree of inflammatory cell infiltration: number of rabbits graded ++ [1]: 4 | degree of inflammatory cell infiltration: number of rabbits graded +++ [1]: 2 | degree of inflammatory cell infiltration: number of rabbits graded − [1]: 0 | Degree of keratinization: number of rabbits graded + [1]: 5 | Degree of keratinization: number of rabbits graded ++ [1]: 5 | Degree of keratinization: number of rabbits graded +++ [1]: 0 | Degree of keratinization: number of rabbits graded − [1]: 0 | inhibition in vivo at 500 µmol/kg ([2]; day 25, vs solvent control): 81.4% | Tumor volume, day 25 ([2]; day 25, n=6): 393 ± 25 ** mm3

CNCCC(=O)ON=C1C=C2CC[C@H]3[C@H](CC[C@]4(C)C(c5cccnc5)=CC[C@@H]34)[C@@]2(C)CC1 [Example 6, (8S,9S,10R,13S,14S)-10,13-Dimethyl-17-(pyridin-3-yl) -6,7,8,9,10,11,12,13,14,15-decahydro-1H-cyclopenta[a]phenanthrenyl-3(2H)-one O-(3-(methylamino)propionyl)oxime]
AUC0-inf [3, 5]: 2396 nM·h | AUC0-t [3, 5]: 2103 nM·h | Cmax [3, 5]: 0.679 µM | Tmax [3, 5]: 2.00 h | t1/2 [3, 5]: 2.73 h | AUC0-inf [3, 6]: 2287 nM·h | AUC0-t [3, 6]: 2237 nM·h | Cmax [3, 6]: 0.421 µM | Tmax [3, 6]: 2.00 h | t1/2 [3, 6]: 3.17 h | degree of inflammatory cell infiltration: number of rabbits graded + [1]: 6 | degree of inflammatory cell infiltration: number of rabbits graded ++ [1]: 3 | degree of inflammatory cell infiltration: number of rabbits graded +++ [1]: 1 | degree of inflammatory cell infiltration: number of rabbits graded − [1]: 0 | Degree of keratinization: number of rabbits graded + [1]: 5 | Degree of keratinization: number of rabbits graded ++ [1]: 5 | Degree of keratinization: number of rabbits graded +++ [1]: 0 | Degree of keratinization: number of rabbits graded − [1]: 0 | Tumor volume, Day 1 ([2]; Day 1 (day of grouping, start of dosing), n=6): 227 ± 21^ mm3 | Tumor volume, day 25 ([2]; day 25, n=6): 405 ± 15 * mm3 | Growth Inhibition rate (GI) ([2]; day 25, vs solvent control): 80.7% **
